Assay results taken from US20120283334A1, “Treatment of Viral Infections” (Biocopea, Ltd., priority 2009, published 2012).

Test system: influenza (A/PR/8/34), H1N1 virus
Assay: In vivo mouse influenza challenge, bupropion metabolite by oral gavage
Conditions: H1N1-infected mice
Source text: 6) In Vivo Mouse Studies Using Bupropion Metabolite
The bupropion metabolite known as 2-(1,1-dimethylethyl)amino-1-(3-chlorophenyl)propan-1-ol (BC1053), in 10% ethanol, was delivered orally to influenza infected mice, as follows.
Two groups of n=12 C57BLK/6 barrier reared female mice (6-8 weeks old, and between 15-18 g in weight) were intranasally challenged with a lethal dose of influenza (A/PR/8/34). On day 3 post-challenge, the animals received the following treatments: group A received an oral gavage of 100 μl of 10% Ethanol in water; and group B received an oral gavage of 100 μl containing 540 μg of bupropion metabolite in 10% Ethanol in water.
The animals were weighed and monitored daily for morbidity and mortality up to day 6, when all animals were culled. Average weight loss per group and survival were calculated.
As described above, mice were infected with a H1N1 virus which was allowed to become established in each of the subjects. Each test mouse was then treated with 2-(1,1-dimethylethyl)amino-1-(3-chlorophenyl)propan-1-ol (i.e. a bupropion metabolite, BC1053) with a single dose on day 3 after infection with the virus. In the control mice, no metabolite was administered. The weight loss of both treated and untreated mice was then determined.

CC(NC(C)(C)C)C(O)c1cccc(Cl)c1 (centres unmarked) [BC1053, 2-(1,1-dimethylethyl)amino-1-(3-chlorophenyl)propan-1-ol]
lower reduction in weight loss than the control mice (single oral dose 540 μg on day 3, FIG. 4): ≥ 30% | higher survival rate than the control, untreated mice (single oral dose 540 μg on day 3, FIG. 5): about 30%
